Results as given in patent publication US9089569B2, “1,2,6-substituted benzimidazoles as flap modulators” (JANSSEN PHARMACEUTICA NV, priority 2013, dated 2015).
Where a name gives a salt, the structure may show the parent alone.

Columns and labels:
[1] = test system: leukotriene pathway in human whole blood (LTB4); test: Human whole blood assay (LTB4, A23187-stimulated); assay type: cell-based; conditions: human whole blood diluted 1:1, calcium ionophore A23187 stimulation, LTB4 levels
Experimental: An in vitro cellular assay was performed using human whole blood collected in heparin-containing tubes, which was used to test the ability of compounds to modulate the leukotriene pathway in human whole blood. The blood was diluted 1:1 in RPMI medium, pre-incubated for 15 min at 37° Celsius with test compounds at various concentrations, and then stimulated with calcium ionophore, A23187 (7 μg/mL), for 30 min at 37° Celsius. The samples were then centrifuged and plasma was removed. The plasma was diluted in assay buffer and LTB4 levels were measured using a commercial kit (Enzo Life Sciences). The concentration of each compound that was required for half-maximal inhibition (modulation) of […] (IC50) was calculated by a 4-parameter equation using the program GraphPad Prism (GraphPad software). For analysis, data are imported into 3DX and aggregated as the average of duplicates of the calculated ratios in order to calculate Ki and IC50 values. Numbers in parentheses are the number of runs for the assay.

human FLAP = human FLAP (Homo sapiens (Human), UniProt P20292); test: FLAP binding assay (HTRF); conditions: wild type FLAP-containing membranes, HTRF format
Sequence of human FLAP (P20292 whole entry): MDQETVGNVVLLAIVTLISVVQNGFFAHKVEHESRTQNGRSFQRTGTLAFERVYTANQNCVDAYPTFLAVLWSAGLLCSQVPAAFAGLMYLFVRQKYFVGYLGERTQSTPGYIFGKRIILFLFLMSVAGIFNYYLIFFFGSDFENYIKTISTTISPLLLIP
Experimental: The assay below is used to test the modulatory activity of compounds against FLAP. Human and mouse FLAP-encoding DNA was amplified by polymerase chain reaction and cloned into pFastBac1 (Invitrogen) with a NH2-terminal 6-His tag for expression in Spodoptera frugiperda (Sf-9) cells. FLAP-containing membranes were prepared as was a FITC-labeled FLAP modulator (3-(3-(tert-butylthio)-1-(4-chlorobenzyl)-5-(quinolin-2-ylmethoxy)-1H-indol-2-yl)-2,2-dimethylpropanoic acid). The FLAP binding assay is performed in HTRF format (homogeneous time resolved fluorescence). […] The reaction is allowed to proceed for two hours after which the plate is read on an Envision plate reader in HTRF mode. Data are expressed as a HTRF ratio.
For human FLAP binding assays, data are analyzed with 3DX Explorer software. […] For analysis, data from multiple runs are averaged and each compound may be tested in 2 to 20 runs. Each run comprises two plates and each plate includes duplicates. Data from each plate is averaged and data are imported into 3DX. The data from multiple runs are aggregated as the average of duplicates of the calculated ratios in order to calculate Ki and IC50 values. Numbers in parentheses are the number of runs for the assay.

| IC50 [1] | SMILES | also measured |
| --- | --- | --- |
| 3.57 µM | Cn1ccc(COc2cc(F)c3nc(C4CCCC[C@@H]4C(=O)O)n(Cc4ccc(N5CC(F)(F)C5)cc4)c3c2)n1 (mixture of isomers) [Example 168, racemic cis-2-{1-[4-(3,3-Difluoroazetidin-1-yl)benzyl]-4-fluoro-6-[(1-methyl-1H-pyrazol-3-yl)methoxy]-1H-benzimidazol-2-yl}cyclohexanecarboxylic acid as the formate salt] |  |
| 0.55 µM | CCC(CC)(Cc1nc2ccc(OCc3ccn(C)n3)cc2n1Cc1ccc(-c2ccc(C(F)(F)F)cc2)cc1)C(=O)O [Example 188, 2-ethyl-2-((6-((1-methyl-1H-pyrazol-3-yl)methoxy)-1-((4′-(trifluoromethyl)-[1,1′-biphenyl]-4-yl)methyl)-1H-benzo[d]imidazol-2-yl)methyl)butanoic acid] |  |

The next lines start with the compound.

| SMILES | IC50 [1] | also measured |
| --- | --- | --- |
| Cc1ccc(COc2ccc3nc([C@@H]4[C@H](C(=O)O)C4(C)C)n(Cc4ccc(OC(F)(F)F)cc4)c3c2)nc1 (racemic) [Example 25, racemic cis-2,2-Dimethyl-3-{6-[(5-methylpyridin-2-yl)methoxy]-1-[4-(trifluoromethoxy)benzyl]-1H-benzimidazol-2-yl}cyclopropanecarboxylic acid] | 3.12 µM |  |
| Cc1ccc(COc2ccc3nc([C@H]4CCCC[C@H]4C(=O)O)n(Cc4ccc(OC(F)(F)F)c(Cl)c4)c3c2)nc1 (racemic) [Example 32, racemic cis-2-{1-[3-Chloro-4-(trifluoromethoxy)benzyl]-6-[(5-methylpyridin-2-yl)methoxy]-1H-benzimidazol-2-yl}cyclohexanecarboxylic acid] | 0.21 µM |  |
| Cn1ccc(COc2cc3c(cc2F)nc([C@@H]2CCCC[C@@H]2C(=O)O)n3Cc2ccc(OC(F)(F)F)cc2F)n1 (racemic) [Example 90, racemic cis-2-{5-Fluoro-1-[2-fluoro-4-(trifluoromethoxy)benzyl]-6-[(1-methyl-1H-pyrazol-3-yl)methoxy]-1H-benzimidazol-2-yl}cyclohexanecarboxylic acid] |  | Ki (human FLAP): 0.027 µM |
| Cn1ccc(COc2ccc3nc([C@@H]4CCCC[C@@H]4C(=O)O)n(Cc4ccc(OC(F)(F)F)cc4)c3c2)n1 (relative stereo) [Example 36, (1S*,2R*)-2-{6-[(1-Methyl-1H-pyrazol-3-yl)methoxy]-1-[4-(trifluoromethoxy)benzyl]-1H-benzimidazol-2-yl}cyclohexanecarboxylic acid] |  | IC50 ([1]; Homo sapiens): 0.59 µM |
| Cn1ccc(COc2ccc3nc([C@@H]4CCCC[C@@H]4C(=O)O)n(Cc4ccc(OC(F)(F)F)cc4)c3c2)n1 (relative stereo) [Example 45, (1R*,2S*)-2-{6-[(1-Methyl-1H-pyrazol-3-yl)methoxy]-1-[4-(trifluoromethoxy)benzyl]-1H-benzimidazol-2-yl}cyclohexanecarboxylic acid] |  | IC50 ([1]; Homo sapiens): > 10 µM |
